Laboratory results from ChEMBL document CHEMBL1143994, “New terpenoids from Maytenus apurimacensis as MDR reversal agents in the parasite Leishmania” (2008).

Experiments:
Format in all cases: functional
Leishmania tropica [1] = test: Growth inhibition of multidrug resistant Leishmania tropica at 15 uM in presence of 150 uM daunomycin after 72 hrs by MTT assay relative to control
Leishmania tropica [2] = test: Growth inhibition of multidrug resistant Leishmania tropica at 1 uM in presence of 150 uM daunomycin after 72 hrs by MTT assay relative to control
Leishmania tropica [3] = test: Growth inhibition of multidrug resistant Leishmania tropica at 3 uM in presence of 150 uM daunomycin after 72 hrs by MTT assay relative to control
Leishmania tropica [4] = test: Growth inhibition of wild type Leishmania tropica LRC at 1 uM after 72 hrs by MTT assay relative to control; settings: read-out: GI
Leishmania tropica [5] = test: Growth inhibition of multidrug resistant Leishmania tropica at 7 uM in presence of 150 uM daunomycin after 72 hrs by MTT assay relative to control
Leishmania tropica [6] = test: Growth inhibition of wild type Leishmania tropica LRC at 15 uM after 72 hrs by MTT assay relative to control; settings: read-out: GI
Leishmania tropica [7] = test: Growth inhibition of wild type Leishmania tropica LRC at 3 uM after 72 hrs by MTT assay relative to control; settings: read-out: GI
Leishmania tropica [8] = test: Growth inhibition of wild type Leishmania tropica LRC at 7 uM after 72 hrs by MTT assay relative to control; settings: read-out: GI

Row | Structure (SMILES) | growth inhibition (GI) (Leishmania tropica [1]) | growth inhibition (GI) (Leishmania tropica [2]) | growth inhibition (GI) (Leishmania tropica [3]) | inhibition of growth at 1 µM (Leishmania tropica [4]) | growth inhibition (GI) (Leishmania tropica [5]) | inhibition of growth at 15 µM (Leishmania tropica [6]) | inhibition of growth at 3 µM (Leishmania tropica [7]) | inhibition of growth at 7 µM (Leishmania tropica [8])
1 | CC(=O)O[C@@H]1[C@@H]2[C@@H](OC(=O)c3cccnc3)[C@]3(OC2(C)C)[C@H](C)CC[C@H](OC(=O)c2ccccc2)[C@@]3(C)[C@@H]1OC(=O)c1ccccc1 | 96.1% | 8.6% | 21.2% | 0% | 59.2% | 2.3% | 0% | 0.8%
2 | CC(=O)O[C@@H]1[C@@H]2[C@@H](OC(=O)c3cccnc3)[C@@]3(OC2(C)C)[C@@](C)([C@@H](OC(=O)c2ccccc2)CC[C@@]3(C)O)[C@@H]1OC(=O)c1ccccc1 | 98.5% | 15.8% | 62.8% | 0% | 90.2% | 13.6% | 0% | 0%
